Experimental data reported in PubChem BioAssay AID2060901 (Molecular Pharmacology Branch, DTP, NCI, 2025).
pIC50: −log10 of the molar value.

Tested on: 422866-222-R5-J1-PDC complex spheroids viability
Assay: Anticancer human tumor 422866-222-R5-J1-PDC patient-derived pancreatic adenocarcinoma cell line growth inhibition [RAS]
Details: for pIC50: curve of first compound; for viability, T/C: stronger effect = lower value; active = viability on the fitted dose curve at most 10% of control; inactive = the rest
From the text: RAS pathway inhibitors in Combinations in Complex Spheroids
A high-throughput screen of multi-cell type tumor spheroids was designed to identify active combinations of RAS pathway inhibitors and targeted small molecules. Complex spheroids include a stromal component modeled by human endothelial cells (HUVEC) and fibroblasts modeled by human mesenchymal stem cells (MSCs). The concentration ranges selected for each drug and investigational agent were based upon clinically achievable concentrations if the clinical Cmax of the agent was known.
Compounds. The drugs and investigational agents: abemaciclib (NSC768073), cobimetinib (NSC768068), divarasib (GDC6063, NSC841802), docetaxel (NSC628503), GDC-1971 (RLY-1971, NSC841576), gemcitabine (NSC613327), inavolisib (NSC800729), ipatasertib (NSC767898), KB-0742 (NSC834161), MRTX-1133 (NSC836407), osimertinib (NSC779217), RMC-4630 (NSC839698), RMC-6236 (NSC851965), RMC-6291 (NSC852671), Ro-3306 (NSC812927), sapanisertib (NSC764658), SN-38 (NSC673596), staurosporine (NSC755774), SY5609 (NSC837396), and tovorafenib (DAY101, NSC766906), were obtained from the National Cancer Institute (NCI) Developmental Therapeutics Program Chemical Repository. The FDA-approved anticancer drug set is available from the NCI Developmental Therapeutics Program. […] The stock solutions were prepared in dimethyl sulfoxide (DMSO, Sigma-Aldrich, St. Louis, MO, cat. D2650) at 800-fold the tested concentration and stored at -70 degrees C prior to their use. All drugs and investigational agents were tested over a range starting from a high concentration at or near the clinical Cmax and decreasing in half-log increments. If the clinical Cmax for an agent had not been determined, the highest concentration tested was 10 microM.
Cell Culture. All cells were maintained in an incubator at 37 degrees C and 5% CO2 with 95% humidity. The PDC lines were cultured according to standard operating procedures established by the NCI PDMR. All PDCs were thawed and cultured in Matrigel-coated flasks prepared with a working solution of 1X Ham's F-12 nutrient mix, without supplementation (Invitrogen, Waltham, MA, cat. 11765054), 100 U/mL penicillin-streptomycin (Invitrogen, cat. 15140122), and 2.5% Matrigel (Corning Inc., Corning, NY, cat. 354248) for the first three passages. The 362531-283-R-J2-PDC and 782815-120-R-J1-PDC lines were cultured in 6C/Colon 1B media, which includes advanced DMEM/F-12 (Thermo Fisher Scientific, cat. 12634028), 10 mM HEPES (Thermo Fisher Scientific, cat. 15630080), 1X GlutaMAX supplement (Thermo Fisher Scientific, cat. 35050061), 0.1 mg/mL primocin (InvivoGen, San Diego, CA, cat. ant-pm-2), 10% defined fetal bovine serum, heat inactivated (HyClone Laboratories Inc., Logan, UT, cat. SH30070.03HI), 50% L-WRN conditioned media (ATCC, cat. CRL-3276), 1.25 mM N-Acetyl-L-cysteine (Sigma-Aldrich, cat. A9165), 10 mM nicotinamide (Sigma-Aldrich, cat. N0636), 1X B-27 supplement (Thermo Fisher Scientific, cat. 17504044), 1X N-2 supplement (Thermo Fisher Scientific, cat. 17502048), 50 ng/mL human EGF (Thermo Fisher Scientific, cat. PHG0311), and 10 microM Y-27632 dihydrochloride (Tocris Bioscience, cat. 1254). The K12877-001-R-J1-PDC line was cultured in 6I media, which includes all 6C/Colon 1B media plus 10 ng/mL human FGF-10 (PeproTech, cat. 100-26), 1 ng/mL human FGF-2 (PeproTech, cat. 100-18B), 1 µM prostaglandin E2 (Tocris Bioscience, cat. 2296), […] hydrocortisone (Sigma-Aldrich, cat. H4001), and […] bovine insulin (Sigma-Aldrich, cat. I6634). The K86415-001-R-J1-PDC line was cultured in 6D media, which includes all 6C/Colon 1B media components minus the L-WRN conditioned media. The 485176-168-R4-J1-PDC was cultured in PANC media, which includes all 6C/Colon 1B media plus 100 ng/mL human FGF-10 (PeproTech, cat. 100-26), 500 nM SB-431542 (Selleckchem, cat. S1067), and 10 nM gastrin (Tocris Bioscience, cat. 3006). […]
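Also: spheroids exposed to compounds for 7 days.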

CC1(C)CCC(Nc2ncc(C(F)(F)F)c(-c3c[nH]c4c(P(C)(C)=O)c(C#N)ccc34)n2)CN1 (centres undefined) + CCn1c(-c2cc(N3CCN(C)CC3)cnc2C(C)OC)c2c3cc(ccc31)-c1csc(n1)CC(NC(=O)C1CC1C)C(=O)N1CCCC(N1)C(=O)OCC(C)(C)C2
> 9.02: pIC50 (second compound 0.000949 µM) | pIC50 (second compound 0.003 µM) | pIC50 (second compound 0.00949 µM) | pIC50 (second compound 0.03 µM) | pIC50 (second compound 0.0949 µM) | pIC50 (second compound 0.3 µM)
inactive: viability, T/C (second compound 0.000949 µM, first compound 0.000949 µM) 30.6% | viability, T/C (second compound 0.000949 µM, first compound 0.003 µM) 29.6% | viability, T/C (second compound 0.000949 µM, first compound 0.00949 µM) 32.5% | viability, T/C (second compound 0.000949 µM, first compound 0.03 µM) 31.7% | viability, T/C (second compound 0.000949 µM, first compound 0.0949 µM) 30% | viability, T/C (second compound 0.000949 µM, first compound 0.3 µM) 33.4% | viability, T/C (second compound 0.003 µM, first compound 0.000949 µM) 24.3% | viability, T/C (second compound 0.003 µM, first compound 0.003 µM) 24% | viability, T/C (second compound 0.003 µM, first compound 0.00949 µM) 27.2% | viability, T/C (second compound 0.003 µM, first compound 0.03 µM) 27.5% | viability, T/C (second compound 0.003 µM, first compound 0.0949 µM) 26.9% | viability, T/C (second compound 0.003 µM, first compound 0.3 µM) 31.3% | viability, T/C (second compound 0.00949 µM, first compound 0.000949 µM) 21.2% | viability, T/C (second compound 0.00949 µM, first compound 0.003 µM) 21.1% | viability, T/C (second compound 0.00949 µM, first compound 0.00949 µM) 23.1% | viability, T/C (second compound 0.00949 µM, first compound 0.03 µM) 21.6% | viability, T/C (second compound 0.00949 µM, first compound 0.0949 µM) 25.4% | viability, T/C (second compound 0.00949 µM, first compound 0.3 µM) 24.8% | viability, T/C (second compound 0.03 µM, first compound 0.000949 µM) 22.2% | viability, T/C (second compound 0.03 µM, first compound 0.003 µM) 21.2% | viability, T/C (second compound 0.03 µM, first compound 0.00949 µM) 25.4% | viability, T/C (second compound 0.03 µM, first compound 0.03 µM) 23.5% | viability, T/C (second compound 0.03 µM, first compound 0.0949 µM) 25% | viability, T/C (second compound 0.03 µM, first compound 0.3 µM) 22.8% | viability, T/C (second compound 0.0949 µM, first compound 0.000949 µM) 19.1% | viability, T/C (second compound 0.0949 µM, first compound 0.003 µM) 22.9% | viability, T/C (second compound 0.0949 µM, first compound 0.00949 µM) 24.6% | viability, T/C (second compound 0.0949 µM, first compound 0.03 µM) 20.7% | viability, T/C (second compound 0.0949 µM, first compound 0.0949 µM) 23.1% | viability, T/C (second compound 0.0949 µM, first compound 0.3 µM) 28.9% | viability, T/C (second compound 0.3 µM, first compound 0.000949 µM) 19.7% | viability, T/C (second compound 0.3 µM, first compound 0.003 µM) 22.6% | viability, T/C (second compound 0.3 µM, first compound 0.00949 µM) 26.8% | viability, T/C (second compound 0.3 µM, first compound 0.03 µM) 24.1% | viability, T/C (second compound 0.3 µM, first compound 0.0949 µM) 28.1% | viability, T/C (second compound 0.3 µM, first compound 0.3 µM) 28.1%

CC(Nc1ccc2c(c1)OCCn1cc(N3C(=O)OCC3C(F)F)nc1-2)C(N)=O (centres undefined) + CCn1c(-c2cc(N3CCN(C)CC3)cnc2C(C)OC)c2c3cc(ccc31)-c1csc(n1)CC(NC(=O)C1CC1C)C(=O)N1CCCC(N1)C(=O)OCC(C)(C)C2
> 7.50: pIC50 (second compound 0.000949 µM) | pIC50 (second compound 0.003 µM) | pIC50 (second compound 0.00949 µM) | pIC50 (second compound 0.03 µM) | pIC50 (second compound 0.0949 µM) | pIC50 (second compound 0.3 µM)
active: viability, T/C (second compound 0.000949 µM, first compound 10 µM) 10.7% | viability, T/C (second compound 0.003 µM, first compound 1 µM) 8.16% | viability, T/C (second compound 0.003 µM, first compound 3.16 µM) 6.87% | viability, T/C (second compound 0.003 µM, first compound 10 µM) 5.82% | viability, T/C (second compound 0.00949 µM, first compound 0.316 µM) 9.35% | viability, T/C (second compound 0.00949 µM, first compound 1 µM) 6.74% | viability, T/C (second compound 0.00949 µM, first compound 3.16 µM) 5.6% | viability, T/C (second compound 0.00949 µM, first compound 10 µM) 4.57% | viability, T/C (second compound 0.03 µM, first compound 0.316 µM) 9.06% | viability, T/C (second compound 0.03 µM, first compound 1 µM) 6.27% | viability, T/C (second compound 0.03 µM, first compound 3.16 µM) 5.7% | viability, T/C (second compound 0.03 µM, first compound 10 µM) 4.35% | viability, T/C (second compound 0.0949 µM, first compound 0.316 µM) 8.62% | viability, T/C (second compound 0.0949 µM, first compound 1 µM) 6.05% | viability, T/C (second compound 0.0949 µM, first compound 3.16 µM) 5.83% | viability, T/C (second compound 0.0949 µM, first compound 10 µM) 4.73% | viability, T/C (second compound 0.3 µM, first compound 0.316 µM) 10.2% | viability, T/C (second compound 0.3 µM, first compound 1 µM) 6.6% | viability, T/C (second compound 0.3 µM, first compound 3.16 µM) 5.26% | viability, T/C (second compound 0.3 µM, first compound 10 µM) 4.96%
inactive: viability, T/C (second compound 0.000949 µM, first compound 0.0316 µM) 24.6% | viability, T/C (second compound 0.000949 µM, first compound 0.1 µM) 19% | viability, T/C (second compound 0.000949 µM, first compound 0.316 µM) 13% | viability, T/C (second compound 0.000949 µM, first compound 1 µM) 11.9% | viability, T/C (second compound 0.000949 µM, first compound 3.16 µM) 9.45% | viability, T/C (second compound 0.003 µM, first compound 0.0316 µM) 16.9% | viability, T/C (second compound 0.003 µM, first compound 0.1 µM) 14.2% | viability, T/C (second compound 0.003 µM, first compound 0.316 µM) 9.14% | viability, T/C (second compound 0.00949 µM, first compound 0.0316 µM) 16.1% | viability, T/C (second compound 0.00949 µM, first compound 0.1 µM) 12.1% | viability, T/C (second compound 0.03 µM, first compound 0.0316 µM) 13.4% | viability, T/C (second compound 0.03 µM, first compound 0.1 µM) 11.8% | viability, T/C (second compound 0.0949 µM, first compound 0.0316 µM) 15.5% | viability, T/C (second compound 0.0949 µM, first compound 0.1 µM) 12.1% | viability, T/C (second compound 0.3 µM, first compound 0.0316 µM) 13.9% | viability, T/C (second compound 0.3 µM, first compound 0.1 µM) 11.8%
